According to patent US6703362B1, “Random peptides that bind to gastro-intestinal tract (GIT) transport receptors and related methods” (Cytogen Corporation, priority 1997, dated 2004):
One block for each substance: values may come before it.

What was measured:
hPEPT1 = target: T1, hPEPT1 (Homo sapiens, UniProt P46059); experiment: Phage receptor ELISA on hPEPT1; type: binding; conditions: for OD, binding to hPEPT1: Table 4, phage panned on hPEPT1; for PEPT1/BSA: ratio of hPEPT1 to BSA binding
T1 construct: 391-571; made in house
T1 sequence (P46059 391-571): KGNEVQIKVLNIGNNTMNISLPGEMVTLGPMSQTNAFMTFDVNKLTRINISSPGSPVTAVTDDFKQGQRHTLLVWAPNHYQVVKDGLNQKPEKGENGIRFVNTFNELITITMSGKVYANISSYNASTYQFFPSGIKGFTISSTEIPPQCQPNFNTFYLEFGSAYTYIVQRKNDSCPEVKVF
Description: (§1) 96 well plates were coated overnight with GIT receptor, BSA and, optionally, IDE (insulin degrading enzyme, an irrelevant His-fusion protein)or hTF. The plates were 5 blocked for one hour with 0.5% BSA-PBS. After clarification, the amplified phage were diluted 1:100 in […] plus 0.05% Tween 20 in PBS and added to the plates. Following incubation of the plates on a rotator for 1 to 2 hours, the plates were washed 5 times with 1% BSA plus 0.05% Tween 20 in PBS. Dilute anti-M13-HRP conjugate (anti-M13 antibody linked to horse radish peroxidase (HRP)) was added to all the wells and the plate was incubated for one hour on a rotator. After the plates were washed 5 times, as described above, TMB substrate was added to the wells. The plates were read at 650 nm absorbance.

intestinal tissue = experiment: Preselected phage libraries, rat closed loop: absorption/internalization to intestinal tissue (hybridization autoradiograph); type: in vivo; conditions: for binding to the intestine / found in the intestine samples: hPEPT1 pool of phages; for found in the intestinal samples fractions: D2H pool of phages
[1] = Isoelectric points of synthetic peptides; type: physicochemical
BSA = BSA (Bos taurus, UniProt P02769); experiment: Phage ELISA on BSA (background control protein); type: binding
BSA, sequence (P02769 25-607): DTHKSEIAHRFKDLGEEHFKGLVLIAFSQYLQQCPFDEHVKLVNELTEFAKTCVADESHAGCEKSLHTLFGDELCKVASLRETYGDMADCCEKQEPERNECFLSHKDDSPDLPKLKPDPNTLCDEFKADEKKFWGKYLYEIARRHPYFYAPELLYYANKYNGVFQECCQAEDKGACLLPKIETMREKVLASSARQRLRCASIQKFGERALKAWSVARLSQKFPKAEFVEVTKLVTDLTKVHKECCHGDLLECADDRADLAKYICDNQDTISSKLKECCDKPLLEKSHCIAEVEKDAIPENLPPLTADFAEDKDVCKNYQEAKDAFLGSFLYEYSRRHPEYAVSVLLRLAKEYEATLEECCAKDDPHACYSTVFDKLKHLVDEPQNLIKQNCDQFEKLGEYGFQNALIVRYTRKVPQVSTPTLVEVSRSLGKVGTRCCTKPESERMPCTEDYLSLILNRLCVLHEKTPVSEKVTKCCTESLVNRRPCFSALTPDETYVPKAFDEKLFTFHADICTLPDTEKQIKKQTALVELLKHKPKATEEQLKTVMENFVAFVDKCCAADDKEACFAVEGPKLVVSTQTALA
Description: as §1

fixed Caco-2 cells = experiment: Effect of thrombin cleavage on binding of GST-peptide fusions to fixed Caco-2 cells; conditions: thrombin 18 h at room temperature
Description: Binding of intact and thrombin-cleaved GST-peptide fusions to fixed Caco-2 cells was compared.
Thirty micrograms of each GST-peptide was treated with bovine thrombin (1 μ/ml; 0.4 NIH units; Sigma CN.T9681) for 18 h at room temperature in 2OmM Tris-HCl pH8.0, 150 mM NaCl, 2.5 mM CaCl2. Controls were similarly treated without addition of thrombin. Ten micrograms of each GST-peptide fusion was removed for PAGE analysis, and 10 μg of fusions were added in duplicate to the fixed Caco-2 cells before 5-fold serial dilutions (1% BPT diluent). The fusions were allowed to bind for 1 h at room temperature. Following 6 washes with 1% BPT, binding was assayed by ELISA.

[2] = test system: fixed Caco-2 or C2BBe1 cells; experiment: ELISA of GST fusion proteins on fixed Caco-2 or C2BBe1 cells; type: binding
Description: Fixed Caco-2, C2BBe1, and A431 cell plates were prepared by growing cells on tissue culture treated microtiter plates. When cells were confluent, plates were fixed with 10% formaldehyde, washed twice with PBS and stored with 0.5%BSA-PBS at −20° C. […] The standard ELISA procedure was followed at this point.
The standard ELISA procedure was modified as follows. GST proteins were diluted to an appropriate concentration in PBS containing lkBSA and 0.05% Tween20 (1%BPT), titered and incubated one hour at room temperature. Following five washes an anti-GST monoclonal antibody was added (Sigma, St. Louis Clone GST-2 diluted 1:10,000 in 1%BPT) and incubated one hour. After five more washes goat anti-mouse IgG2b-HRP was added (Southern Biotechnology Associates Inc., Birmingham, Ala., diluted 1:4000 in 1%BPT) and incubated one hour. After five washes plates were developed with TMB peroxidase substrate (Kirkegard and Perry, Gaithersburg, Md.). All data is presented with background binding subtracted.

hSI = target: T2, hSI (Homo sapiens, UniProt P14410); experiment: Phage receptor ELISA on hSI; type: binding; conditions: for OD, binding to hSI: Table 1, phage panned on hSI, absorbance 650 nm; for hSI/BSA: ratio of hSI to BSA binding
T2 construct: made in house
T2 sequence (P14410 272-667): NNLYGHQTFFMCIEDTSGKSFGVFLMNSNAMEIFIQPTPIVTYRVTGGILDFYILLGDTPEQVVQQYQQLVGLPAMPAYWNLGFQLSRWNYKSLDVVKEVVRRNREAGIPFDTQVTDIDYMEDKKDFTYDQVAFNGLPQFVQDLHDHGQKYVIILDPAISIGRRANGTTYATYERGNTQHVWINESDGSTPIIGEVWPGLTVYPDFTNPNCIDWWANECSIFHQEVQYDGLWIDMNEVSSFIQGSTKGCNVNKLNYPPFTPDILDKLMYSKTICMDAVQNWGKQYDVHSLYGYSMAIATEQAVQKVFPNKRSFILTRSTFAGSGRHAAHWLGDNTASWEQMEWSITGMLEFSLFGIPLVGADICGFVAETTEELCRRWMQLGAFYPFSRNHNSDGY
Description: as §1

[3] = test system: ZElan024 (P31), ZElan018 (PAX2), ZElan021 (HAX42); experiment: Crossreactive binding of GST fusions to dansylated peptides
[4] = test system: P100 membrane fraction derived from Caco-2 cells; experiment: GST-PAX2 peptides relative binding to P100 fractions (ratio to GST-HAX42); conditions: 20 μg/ml GST-peptide; binding to plastic subtracted; GST-HAX42 = 1.00
Description: The peptides and proteins were analyzed by a dansylated peptide ELISA method in which 96 well plates were coated overnight at 4° C. with 100 μl/well coating protein (normally 100 μg/ml P100 membrane fraction) in 0.05M carbonate buffer pH9.6. Nonspecific binding was blocked using 200 μl/well, 2% Marvel/PBS for 2 hours at 37° C. prior to incubation with dansylated peptides. The plates were washed three times with PBS/0.05% Tween 20 and after each subsequent incubation step. […] A buffer blank control was included to ensure that background binding to plastic was not due to the antibodies used in the assay system. […] The plates were then incubated with an anti-mouse X-HRP conjugated antibody (Southern Biotech 1060-05) at a 1:10,000 dilution in blocking solution, 100 μl/well for 1 hour at room temperature. Plates were developed using 75 μl/well Bionostics TMB substrate and incubated for approximately 10 minutes. The developing reaction was stopped using Bionostics Red Stop solution (25 μl/well), and the optical density of the plates was read at 650nm.
After subtraction of the GST-peptide binding to plastic from P100 binding values, the binding of GST-PAX2 peptides were represented as a ratio of GST-HAX42 binding to P100, which was given the arbitrary value of 1.00. The following ratios were determined from binding to P100 of GST-peptides at a peptide concentration of 20 μg/ml. Bold denotes positive binding to the P100 membrane fraction.

D2H = target: T3, D2H (Homo sapiens, UniProt Q07837); experiment: Phage receptor ELISA on D2H; type: binding; conditions: Table 3; for D2H/BSA: ratio of D2H to BSA binding; for OD, binding to D2H: two rounds on D2H, third pan on Caco-2 snapwells
T3 construct: 387-685; made in house
T3 sequence (Q07837 387-685): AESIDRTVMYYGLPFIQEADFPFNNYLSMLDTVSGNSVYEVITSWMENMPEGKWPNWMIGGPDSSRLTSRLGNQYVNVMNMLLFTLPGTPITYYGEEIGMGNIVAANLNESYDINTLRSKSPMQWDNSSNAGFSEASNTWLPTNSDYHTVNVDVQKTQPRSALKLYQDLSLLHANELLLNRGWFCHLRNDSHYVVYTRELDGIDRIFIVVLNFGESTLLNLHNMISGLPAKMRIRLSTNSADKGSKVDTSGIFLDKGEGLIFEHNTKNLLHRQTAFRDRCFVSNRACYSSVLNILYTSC
Description: as §1

- OD, binding to hPEPT1 (hPEPT1): 0.15
- PEPT1/BSA (hPEPT1): 4
- binding to the intestine / found in the intestine samples (intestinal tissue): not found in the intestine samples
- pI [1]: 11.49
- OD, binding to BSA (BSA; Table 4): 0.036
Substance: RGSTGTAGGERSGVLNLHTRDNASGSGFKPWYPSNRGHK [Peptide 5PAX5]

Substance: gst-RVGQCTDSDVRRPWARSCAHQGCGAGTRNSHGCITRPLRQASAH [GST-SNi10]
- effect of thrombin cleavage on detection of binding (fixed Caco-2 cells): significantly reduced detection of binding
- binding to fixed Caco-2 or C2BBe1 cells relative to GST control [2]: bound fixed Caco-2 or C2BBe1 cells

- OD, binding to hSI (hSI): 0.761
- hSI/BSA (hSI): 7
- pI [1]: 8.25
- OD, binding to BSA (BSA; Table 1, phage panned on hSI): 0.115
Substance: SPCGGSWGRFMQGGLFGGRTDGCGAHRNRTSASLEPPSSDY [SNi34]

- crossreactive binding to ZElan024 (P31) and ZElan018 (PAX2) ([3]; 0.5 μg/ml concentration used in competition assays): no crossreactive binding
- binding to fixed Caco-2 or C2BBe1 cells relative to GST control [2]: bound fixed Caco-2 or C2BBe1 cells
Substance: gst-STPPSREAYSRPYSVDSDSDTNAKHSSHNRRLRTRSRPN [GST-PAX2]
- Value (binding to P100 as ratio of GST-HAX42 binding) [4]: 1.79

- binding of truncation to fixed Caco-2 cells relative to full-length fusion [2]: bound similarly to full-length PAX2
Substance: gst-TNAKHSSHNRRLRTRSRPN [GST-PAX2.106]
- effect of thrombin cleavage on detection of binding (fixed Caco-2 cells): significantly reduced detection of binding
- Value (binding to P100 as ratio of GST-HAX42 binding) [4]: 2.71

Substance: RVGQCTDSDVRRPWARSCAHQGCGAGTRNSHGCITRPLRQASAH [SNi10]
- OD, binding to hSI (hSI): 0.57
- hSI/BSA (hSI): 11
- pI [1]: 10.45
- OD, binding to BSA (BSA; Table 1, phage panned on hSI): 0.051

- binding of truncation to fixed Caco-2 cells relative to full-length fusion [2]: bound almost as well as full-length P31
Substance: gst-ENANTRKSSRSNPRGRRHP [GST-P31.103]
- effect of thrombin cleavage on detection of binding (fixed Caco-2 cells): significantly reduced detection of binding

- OD, binding to hPEPT1 (hPEPT1): 0.807
- PEPT1/BSA (hPEPT1): 11
- binding to the intestine / found in the intestine samples (intestinal tissue): preferential binding
- pI [1]: 12.26
- OD, binding to BSA (BSA; Table 4): 0.075
Substance: SARDSGPAEDGSRAVRLNGVENANTRKSSRSNPRGRRHP [Peptide P31]

- crossreactivity to ZElan018 (PAX2) and ZElan021 (HAX42) ([3]; 5 μg/ml concentration used in competition assays): crossreactivity
Substance: gst-SDHALGTNLRSDNAKEPGDYNCCGNGNSTGRKVFNRRRPSAIPT [GST-HAX42]
- binding to fixed Caco-2 or C2BBe1 cells relative to GST control [2]: weak to moderate binding
- Value (binding to P100 as ratio of GST-HAX42 binding) [4]: 1.00

- D2H/BSA (D2H): 3
- OD, binding to D2H (D2H): 0.163
- pI [1]: 11.03
- OD, binding to BSA (BSA; Table 3): 0.063
Substance: RYKHDIGCDAGVDKKSSSVRGGCGAHSSPPRAGRGPRGTMVSRL [DCX8]
- found in the intestinal samples fractions (intestinal tissue): to a much lesser extent

- D2H/BSA (D2H): 3
- OD, binding to D2H (D2H): 0.222
- pI [1]: 10.44
- OD, binding to BSA (BSA; Table 3): 0.071
Substance: SQGSKQCMQYRTGRLTVGSEYGCGMNPARHATPAYPARLLPRYR [DCX11]
- found in the intestinal samples fractions (intestinal tissue): found in the intestinal samples fractions
